The subject of experiment [1] is Human acute myeloid leukemia cell line KG1. Put plainly: FGFR-dependent tumor cell proliferation inhibition activity test (CCK-8, 72 h). The format is cell-based. The conditions noted are these: Homo sapiens, KG-1, KG1 cells. An excerpt:
Human acute myeloid leukemia cell line KG1 (FGFR1 fusion protein expressed in the cytoplasm, FGFR1-dependent tumor cell line) (ATCC, Cat. No. CCL-246), cell culture medium RPMI-1640 (Corning Cellgro, No. 10-040-CVR), fetal bovine serum (Life
Technologies, Cat. No. 10099-141) was purchased from the company; CCK-8 cell counting kit (DOJINDO, Cat. No. FK808). Adjustable wavelength microplate reader (Molecular Device, Cat. No. SpectraMax 190).
The inhibitory effect of the compound on KG1 proliferation was detected by CCK-8 Cell Counting Kit (Dojindo): Logarithmic growth phase cells were seeded in 96-well culture plate in appropriate density, 90 ul for each well. After cultured overnight, different concentrations of drugs were added and incubated for 72 h, while solvent control well was set (negative control). After the cells were treated by the compound for 72 h, 10 μL of CCK-8 reagent was added to each well. After incubated for 2-4 hours in a 37 □ incubator, the plate was read with SpectraMax 190 microplate reader at wavelength 450 nm.
The inhibition rate of compounds against cell proliferation is calculated by the following formula:
Inhibition rate (%)=(OD negative control well-OD administration well)/OD negative control well×100%.
(§1) The IC50 values were obtained by four-parameter regression analysis using the software supplied with the microplate reader.

The target of experiment [2] is T1, FGFR1 (Homo sapiens, UniProt P11362).
T1 construct: The reaction was initiated by addition of FGFR kinase domain recombinant protein diluted with 49 μL of reaction buffer; purchased Millipore 14-482
T1 sequence (P11362 478-767 limits assumed): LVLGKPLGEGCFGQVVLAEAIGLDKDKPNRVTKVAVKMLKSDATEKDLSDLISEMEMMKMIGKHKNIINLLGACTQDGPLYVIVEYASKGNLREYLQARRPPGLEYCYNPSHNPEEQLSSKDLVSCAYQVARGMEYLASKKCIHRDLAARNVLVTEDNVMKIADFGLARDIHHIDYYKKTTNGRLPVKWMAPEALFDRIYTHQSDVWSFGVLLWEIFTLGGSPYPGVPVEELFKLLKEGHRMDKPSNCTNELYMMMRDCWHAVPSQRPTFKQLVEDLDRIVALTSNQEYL
As to the kind of experiment: FGFR kinase inhibitory activity experiment (ELISA, Poly(Glu,Tyr)4:1 substrate). In kind it is biochemical. The settings on record: kinase recombinant protein FGFR1, ATP 5 μM. How it is done: Precision electronic balance (Sartotius, Cat. No. BP210D), adjustable wavelength microplate reader (Molecular Device, Cat. No. SpectraMax 190).
After the liquid was removed from the wells, the plate was washed for three times with 200 μL/well of T-PBS (PBS containing 0.1% Tween-20) for 5 minutes each time. The enzyme plate was dried at 37° C. in a dryer for 1-2 hours.
50 μL ATP solution diluted with reaction buffer (50 mM HEPES pH 7.4, 50 mM MgCl2, 0.5 mM MnCl2, 0.2 mM Na3VO4, 1 mM DTT) was added into each well at a 5 μM final concentration. The compounds were diluted to appropriate concentration in DMSO, 1 μL/well or containing the corresponding concentrations of DMSO (negative control wells). The reaction was initiated by addition of FGFR kinase domain recombinant protein diluted with 49 μL of reaction buffer. Two control wells without enzyme were set in each experiment. The plate was placed on a shaker (100 rpm) at 37° C. for 1 hour. The plate was washed with T-PBS for three times. 100 μL/well of primary antibody PY99 dilution was added, and incubated at 37° C. for 0.5 hour on a shaker (100 rpm). The plate was washed with T-PBS for three times. 100 μL/well of horseradish peroxidase-labeled secondary anti-goat anti-mouse IgG dilution was added and incubated at 37° C. for 0.5 hour on a shaker (100 rpm). The plate was washed with T-PBS for three times. 100 μL/well of 2 mg/mL OPD coloration solution (diluted with 0.1 M citric acid-sodium citrate buffer containing 0.03% H2O2 (pH=5.4)) was added, and incubated in darkness for 1-10 minutes at 25° C. The reaction was quenched with 50 μL/well 2M H2SO4, and read at 490 nm using a tunable microplate microplate reader SPECTRA MAX 190.
The inhibition ratio of the sample was determined by the following formula: […]
as §1

The source of these data is US20190135818A1 (SHANGHAI INSTITUTE OF MATERIA MEDICA, CHINESE ACADEMY OF …, priority 2016, published 2019).

Structures are written as SMILES.

Usually IC50 stands for the concentration that inhibits the measured activity by half. For the compound `Cc1ccc2oc(-c3c4c(N)n[nH]c(=O)c4nn3-c3ccccc3)c(C)c2c1` [Compound A4, 4-amino-3-(3,5-dimethyl-1-benzofuran-2-yl)-2-phenyl-2,6-dihydro-7H-pyrazolo [3,4-d]pyridazine-7-one], the IC50 in experiment [1] lay in the range of 100 to 1000 nM.

As for `Cc1c(-c2c3c(N)n[nH]c(=O)c3nn2-c2ccccc2)oc2ccc(Cl)cc12` [Compound A7, 4-amino-3-(5-chloro-3-methyl-1-benzo-furan-2-yl)-2-phenyl-2,6-dihydro-7H-pyrazolo[3,4-d]pyridazin-7-one], the IC50 in experiment [2] is under 100 nM; in experiment [1], 100 to 1000 nM.

For the compound `Cc1c(-c2c3c(N)n[nH]c(=O)c3nn2-c2ccccc2)oc2cc(F)ccc12` [Compound A8, 4-amino-3-(6-fluoro-3-methyl-1-benzo-furan-2-yl)-2-phenyl-2,6-dihydro-7H-pyrazolo[3,4-d]pyridazin-7-one], the IC50 was under 100 nM in experiment [2] and 100 to 1000 nM in experiment [1].

For `Cc1ccc2oc(-c3c4c(N)n[nH]c(=O)c4nn3-c3ccc(NCN(C)C)cc3)c(C)c2c1` [Compound A9, 4-amino-3-(3,5-dimethyl-1-benzofuran-2-yl)-2-(4-{[(dimethylamino)methyl]amino}phenyl)-2,6-dihydro-7H-pyrazolo[3,4-d]pyridazin-7-one], the IC50 in experiment [2] was under 100 nM; in experiment [1], 100 to 1000 nM.

In the case of `Cc1ccc2oc(-c3c4c(N)n[nH]c(=O)c4nn3C3CCN(C(=O)/C=C/CN4CCC4)CC3)c(C)c2c1` [Compound A31, 4-amino-2-{1-[(2E)-4-(azetidin-1-yl)but-2-enoyl]piperidin-4-yl}-3-(3,5-dimethyl-1-benzofuran-2-yl)-2,6-dihydro-7H-pyrazolo[3,4-d]pyridazin-7-one], in experiment [2], the IC50 was under 100 nM.

For the compound `C=CC(=O)Nc1ccc(-n2nc3c(=O)[nH]nc(N)c3c2-c2oc3ccc(C)cc3c2C)cc1N(C)CCN(C)C` [Compound A32, N-(4-[4-amino-3-(3,5-dimethyl-1-benzo-furan-2-yl)-7-carbonyl-6,7-dihydro-2H-pyrazolo[3,4-d]pyridazin-2-yl]-2-{[(dimethylamino)ethyl](methyl)amino}phenyl)prop-2-enamide], the IC50 in experiment [2] is under 100 nM.

Turning to `Cc1ccc2oc(-c3c4c(N)n[nH]c(=O)c4nn3C3CCN(C(=O)/C=C/CN(C)C4CC4)CC3)c(C)c2c1` [Compound A34, 4-amino-2-(1-{(2E)-4-[cyclopropyl (methyl)amino]but-2-enoyl}piperidin-4-yl)-3-(3,5-dimethyl-1-benzofuran-2-yl)-2,6-dihydro-7H-pyrazolo[3,4-d] pyridazin-7-one], the IC50 in experiment [2] was under 100 nM.

Turning to `Cc1ccc2oc(-c3c4c(N)n[nH]c(=O)c4nn3C3CCN(CCN(C)C)CC3)c(C)c2c1` [Compound A36, 4-amino-2-{1-[2-(dimethylamino)ethyl]piperidin-4-yl}-3-(3,5-dimethylbenzofuran-2-yl)-2H-pyrazolo[3,4-d]pyridazin-7(6H)-one], in experiment [2], the IC50 was under 100 nM.

In the case of `C=CC(=O)N1CCC(Cn2nc3c(=O)[nH]nc(N)c3c2-c2oc3ccc(C)cc3c2C)CC1` [Compound A38, 2-[(1-acryloylpiperidin-4-yl)methyl]-4-amino-3-(3,5-dimethyl-1-benzofuran-2-yl)-2,6-dihydro-7H-pyrazolo[3,4-d]pyridazin-7-one], the IC50 in experiment [2] was under 100 nM.

On to `C=CC(=O)N1CC(Cn2nc3c(=O)[nH]nc(N)c3c2-c2oc3ccc(C)cc3c2C)C1` [Compound A45, 2-[(1-acryloylazetidin-3-yl)methyl]-4-amino-3-(3,5-dimethyl-1-benzofuran-2-yl)-2,6-dihydro-7H-pyrazolo[3,4-d] pyridazin-7-one], for which the IC50 in experiment [2] is under 100 nM.

Turning to `Cc1c(-c2c3c(N)n[nH]c(=O)c3nn2C2CCN(C(=O)/C=C/CNC3CC3)CC2)oc2ccc(Cl)cc12` [Compound A56, 4-amino-3-(5-chloro-3-methyl-1-benzo-furan-2-yl)-2-{1-[(2E)-4-(cyclopropyl-amino)but-2-enoyl]piperidin-4-yl}-2,6-dihydro-7H-pyrazolo[3,4-d]pyridazin-7-one], the IC50 in experiment [2] is under 100 nM.
